Experimental data as given in US12662497B2, “Benzazepine compounds, preparation method therefor and pharmaceutical use thereof” (Shanghai Senhui Medicine Co., Ltd., priority 2021, dated 2026).

Assays:
[1] = Pharmacokinetic study in rats (Test Example 3), intravenous injection; format: in vivo; conditions: SD rats
Text: (§1) 1.1.1. Experimental Animals: SD Rats, Male and Female, Weighing about 220 g. Housing Environment: SPF. The Animals were Transferred from the Animal Repository (999M-017) of the Laboratory Animal Management Department, Shanghai Institute of Planned Parenthood Research. 1.1.2. Administration Regimen:
A proper amount of the compound was accurately weighed out and well mixed with a proper volume of 10% DMSO+35% PEG400+55% normal saline by vortexing or ultrasonication to give a clear solution for intravenous injection.
Blood was collected at various time points after intravenous injection (before the administration and 0.0833, 0.25, 0.5, 1, 2, 4, 8 and 24 h after the administration). EDTA-K2 was used as the anticoagulant, and the esterase inhibitor DDVP was added. Plasma samples were separated and cryopreserved at −70° C., and the compound and tolvaptan levels were determined by LC-MS/MS.

[2] = Pharmacokinetic study in dogs (Test Example 1), intragastric administration; format: in vivo; conditions: beagles; for AUC(0-inf) / AUC(0-t) / Cmax / Tmax / half-life: beagle, dog, plasma, mean value
Procedure: (§2) 1.1.1. Experimental Animals: Beagles, Non-Naïve, Sourced from the Animal Repository of Medicilon: 999M-004.
A proper amount of tolvaptan and compound 5 was accurately weighed out and well mixed with a proper volume of 1% hydroxypropyl methylcellulose by vortexing or ultrasonication to give a 0.5 mg/mL solution of tolvaptan and a 2.15 mg/mL solution of compound 5 for intragastric administration.
(§3) Tolvaptan and compound 5 were intragastrically administrated. Blood was collected before the administration and 10 min, 30 min, 1 h, 2 h, 4 h, 6 h, 8 h and 24 h after the administration. EDTA-K2 was used as the anticoagulant, and the esterase inhibitor DDVP (manufacturer: Sigma) was added. Plasma samples were separated and cryopreserved at −70° C., and the compound 5 and tolvaptan levels were determined by LC-MS/MS.

[3] = Pharmacokinetic study in beagles (Test Example 5), intravenous drip and intragastric administration; format: in vivo; conditions: for AUC(0-t) / Cmax / Tmax / half-life: beagle, dog, plasma
Procedure: as §2
(§4) A proper amount of compound 1b disodium salt and compound 5 was accurately weighed out and well mixed with a proper volume of normal saline by vortexing or ultrasonication to give a 0.5 mg/mL clear solution of compound 1b disodium salt, a 0.25 mg/mL clear solution of compound 5 and a 1.35 mg/mL clear solution of compound 5 for intravenous drip administration.
(§5) A proper amount of tolvaptan and compound 5 was accurately weighed out and well mixed with a proper volume of 1% hydroxypropyl methylcellulose by vortexing or ultrasonication to give a 5 mg/mL solution of tolvaptan and a 1.35 mg/mL solution of compound 5 for intragastric administration.
(§6) The compounds of the intravenous administration group were administered via an intravenous drip over 1 h. The compounds of the intragastric administration group were intragastrically administered. Time points of blood collection were: before the administration and 30 min, 1 h, 1.5 h, 2 h, 4 h, 6 h, 12 h and 24 h after the administration. About 1 mL of blood was collected via the jugular vein or in other suitable ways. EDTA-K2 was used as the anticoagulant, and the esterase inhibitor DDVP was added. Plasma samples were separated and cryopreserved at −70° C., and the levels of related compounds in vivo were determined by LC-MS/MS. About 0.5 mL of blood was collected via the jugular vein or in other suitable ways, placed into separator gel blood collection tubes (without an anticoagulant) and centrifuged at room temperature at 3500 rpm for 10 min to separate the serum, and the concentration of Na^+ in the serum was determined by using the ion-selective electrode method.

[4] = Pharmacokinetic study in rats (Test Example 4), intragastric administration; format: in vivo; conditions: Sprague-Dawley, rat, plasma, SD rats, mean value
Procedure: as §1, with “180-220” for “220”
as §3, with “0.5 h,” for “30 min,”, “DDVP” for “DDVP (manufacturer: Sigma)”

beagles = assay: Blood sodium level (serum Na+, ion-selective electrode) in beagles (Test Example 5); format: in vivo; conditions: compound 5 administered intragastrically 2.7 mg/kg, FIG. 1
Procedure: as §4, §5
as §6, with “Time points of blood collection were: before the administration and 30 min, 1 h, 1.5 h, 2 h, 4 h, 6 h, 12 h and 24 h after the administration. About 1 mL of blood was collected via the jugular vein or in other suitable ways. EDTA-K2 was used as the anticoagulant, and the esterase inhibitor DDVP was added.” left out

[5] = target: T1, Arginine vasopressin receptor 2 (AVPR2) (Homo sapiens, UniProt P30518); assay: Arginine vasopressin receptor 2 (AVPR2) receptor cAMP assay in Flpin-CHO-AVPR2 cells; format: cell-based, humans; conditions: arginine vasopressin stimulation
T1 construct: host or cells: Flpin-CHO (CHO cells)
T1 sequence (P30518 whole entry): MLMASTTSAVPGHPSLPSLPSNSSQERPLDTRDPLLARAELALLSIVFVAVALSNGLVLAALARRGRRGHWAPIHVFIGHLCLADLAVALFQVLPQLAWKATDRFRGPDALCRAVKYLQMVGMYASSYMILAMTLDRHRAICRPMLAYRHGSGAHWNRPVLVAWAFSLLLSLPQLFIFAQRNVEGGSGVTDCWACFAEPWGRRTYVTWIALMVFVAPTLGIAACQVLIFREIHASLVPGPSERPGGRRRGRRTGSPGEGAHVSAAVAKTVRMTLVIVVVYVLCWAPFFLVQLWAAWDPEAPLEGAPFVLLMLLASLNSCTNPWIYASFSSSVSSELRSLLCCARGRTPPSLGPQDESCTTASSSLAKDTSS
Procedure: The test compound was 5-fold diluted with assay buffer (Hank's balanced salt solution+20 mM HEPES+0.1% BSA+500 μM IBMX (manufacturer: Sigma)). The highest initial concentration of the test compound in the assay was 10 μM.
Flpin-CHO-AVPR2 (the cell strain was constructed by Pharmaron Beijing Co., Ltd.; AVPR2 was derived from humans)
• 1) Cells were digested, resuspended in assay buffer and inoculated into a 384-well cell culture plate at a density of 8000 cells per well and a volume of 15 μL per well. • 2) The compound was diluted with assay buffer. • 3) 2.5 μL of the compound was added to each well, and the plate was incubated at 37° C. for 10 min. • 4) Arginine vasopressin (manufacturer: MedChemExpress) was diluted with assay buffer to a concentration of 16 μM. • 5) 2.5 μL of the 16 μM solution of arginine vasopressin was added, and the plate was incubated at 37° C. for 30 min. • 6) Eu-cAMP tracer and Ulight-anti-cAMP were thawed and diluted with lysis buffer (Eu-cAMP tracer, Ulight-anti-cAMP and lysis buffer were all taken from the cAMP assay kit (manufacturer: Perkin Elmer)). • 7) 10 μL of Eu-cAMP tracer was added to the experimental wells, and then 10 μL of Ulight-anti-cAMP was added to the experimental wells. • 8) The reaction plate was centrifuged at room temperature at 200 g for 30 s and left at 25° C. for 1 h, and data collection was performed using a microplate reader.

[6] = both sexes, Sprague-Dawley, rat, plasma, iv, Compound M i.v. 3.91 mg/kg, molecule detected Compound M, mean value
[7] = Tolvaptan administered PO 1 mg/kg, molecule detected Tolvaptan
[8] = po, Tolvaptan 10 mg/kg p.o., molecule detected Tolvaptan, mean value
[9] = female, Tolvaptan PO 9 mg/kg, molecule detected Tolvaptan
[10] = male, Tolvaptan PO 9 mg/kg, molecule detected Tolvaptan
[11] = Compound 5 administered PO 4.3 mg/kg, molecule detected Compound 5
[12] = intragastric, tolvaptan converted in vivo from compound 5 vs tolvaptan administered
[13] = iv, Compound 5 0.5 mg/kg i.v. drip over 1 h, molecule detected Compound 5, mean value
[14] = iv, Compound 5 2.7 mg/kg i.v. drip over 1 h, molecule detected Compound 5, mean value
[15] = po, Compound 5 2.7 mg/kg p.o., molecule detected Compound 5, mean value
[16] = female, Compound 5 PO 12.9 mg/kg, molecule detected Compound 5
[17] = male, Compound 5 PO 12.9 mg/kg, molecule detected Compound 5

SMILES: Cc1ccccc1C(=O)Nc1ccc(C(=O)N2CCCC(OC(=O)OCOC(=O)C(N)C(C)C)c3cc(Cl)ccc32)c(C)c1.Cl (stereo not drawn) [Hydrochloride of Compound 16]
- plasma level of administered molecule ([1]; Hydrochloride of Compound 16 i.v. 4.41 mg/kg, molecule detected Hydrochloride of Compound 16): Undetectable

SMILES: Cc1ccccc1C(=O)Nc1ccc(C(=O)N2CCCC(OC(=O)[C@@H](N)C(C)C)c3cc(Cl)ccc32)c(C)c1 (stereo partly drawn) [Compound M]
- AUC(0-inf) [1, 6]: 824 ng·h/mL
- AUC(0-t) [1, 6]: 786 ng·h/mL
- Cmax [1, 6]: 719 ng/mL
- Tmax [1, 6]: 8.34 min
- clearance [1, 6]: 90.8 mL/min/kg
- half-life [1, 6]: 1.17 h
- Vd ([1]; both sexes, Sprague-Dawley, rat, plasma, iv, Compound M i.v. 3.91 mg/kg, molecule detected Compound M, mean value, read-out: Vss): 6.47 L/kg

SMILES: Cc1ccccc1C(=O)Nc1ccc(C(=O)N2CCCC(O)c3cc(Cl)ccc32)c(C)c1 (stereo not drawn) [Tolvaptan, reference compound]
- AUC(0-inf) [2, 7]: 26.3 ng·h/mL
- AUC(0-t) [2, 7]: 21.6 ng·h/mL
- Cmax [2, 7]: 7.08 ng/mL
- Tmax [2, 7]: 1.5 h
- half-life [2, 7]: 1.94 h
- AUC(0-t) [3, 8]: 10.2 ng·h/mL
- Cmax [3, 8]: 3.83 ng/mL
- Tmax [3, 8]: 1.17 h
- half-life [3, 8]: 2.61 h
- AUC(0-t) [4, 9]: 1820 ng·h/mL
- Cmax [4, 9]: 412 ng/mL
- Tmax [4, 9]: 2 h
- half-life [4, 9]: 2.64 h
- AUC(0-t) [4, 10]: 55.5 ng·h/mL
- Cmax [4, 10]: 20.3 ng/mL
- Tmax [4, 10]: 1.67 h

SMILES: Cc1ccccc1C(=O)Nc1ccc(C(=O)N2CCCC(OCOP(=O)(O)OCC[N+](C)(C)C)c3cc(Cl)ccc32)c(C)c1 (stereo not drawn) [Compound 5, ((7-Chloro-1-(2-methyl-4-(2-methylbenzamido)benzoyl)-2,3,4,5-tetrahydro-1H-benzo[b]azepin-5-yl)oxy)methyl (2-(trimethylammonio)ethyl) phosphate]
- elevating the blood sodium level (beagles): has the effect of elevating the blood sodium level
- IC50 [5]: 8 nM
- AUC(0-inf) [2, 11]: 162 ng·h/mL
- AUC(0-t) [2, 11]: 156 ng·h/mL
- Cmax [2, 11]: 88.7 ng/mL
- Tmax [2, 11]: 0.389 h
- half-life [2, 11]: 1.43 h
- exposure compared with tolvaptan [2, 12]: higher exposure
- half-life compared with tolvaptan [2, 12]: longer half-life
- AUC(0-t) [3, 13]: 1200 ng·h/mL
- Cmax [3, 13]: 889 ng/mL
- Tmax [3, 13]: 1 h
- half-life [3, 13]: 0.704 h
- AUC(0-t) [3, 14]: 7850 ng·h/mL
- Cmax [3, 14]: 5700 ng/mL
- Tmax [3, 14]: 1 h
- half-life [3, 14]: 0.647 h
- AUC(0-t) [3, 15]: 122 ng·h/mL
- Cmax [3, 15]: 61.5 ng/mL
- Tmax [3, 15]: 0.5 h
- half-life [3, 15]: 1 h
- AUC0-t of tolvaptan converted from compound 5 compared with tolvaptan administered intragastrically ([3]; intragastric, compound 5 at a relatively low molar dose (2.7 mg/kg vs tolvaptan 10 mg/kg)): higher AUC0-t
- AUC(0-t) [4, 16]: 58.4 ng·h/mL
- Cmax [4, 16]: 50.1 ng/mL
- Tmax [4, 16]: 0.167 h
- half-life [4, 16]: 1.67 h
- AUC(0-t) [4, 17]: 46.1 ng·h/mL
- Cmax [4, 17]: 44.4 ng/mL
- Tmax [4, 17]: 0.167 h
- half-life [4, 17]: 1.55 h
